Assay results published in paper PMC3653620 (Investigative radiology, 2012).
Entries after “also recorded” stand apart in the source; their conditions may differ. Where two headings read alike, the source gives them in different places. Where a SMILES comes first, the peptide text is derived from it. Bridges are numbered along the chain shown (N, C = ends). [ ]: non-standard residue; d: D form. The star is where a group is joined. X1 = O=C(O)CN1CCN(CC(=O)O)CCN(C(CCC(=O)NCC[C@H](NC(=O)CCC(C(=O)O)N2CCN(CC(=O)O)CCN(CC(=O)O)CCN(CC(=O)O)CC2)C(=O)NCc2ccc(CN*)cc2)C(=O)O)CCN(CC(=O)O)CC1; DOTAGA = O=C(O)CN1CCN(CC(=O)O)CCN(C(CCC(=O)*)C(=O)O)CCN(CC(=O)O)CC1; Tyr(3-Cl) = N[C@@H](Cc1ccc(O)c(Cl)c1)C(=O)O; Hyp = O=C(O)[C@@H]1C[C@@H](O)CN1; Dab = NCC[C@H](N)C(=O)O

Key:
[1] = cited from earlier work
[2] = tested on: tumor core (breast cancer xenograft, BT-20); experiment: Contrast agent washout from tumor core, T1-weighted MRI at 9.4T; assay type: in vivo, nude mice; human adenocarcinoma BT-20 cell line
[3] = cited from earlier work; for relaxivity at 9.4T: per molecule
[4] = tested on: blood plasma proteins; conditions: cited from earlier work
[5] = tested on: tumor periphery (breast cancer xenograft, BT-20); experiment: Contrast agent washout from tumor periphery, T1-weighted MRI at 9.4T; assay type: in vivo, nude mice; human adenocarcinoma BT-20 cell line; conditions: for retention in the tumor periphery / washout, in words: Gd-DTPA 200, EP-2104R or CLP 20 μmol/kg i.v.; for t1/2 in the tumor periphery: CNR vs time
[6] = tested on: thrombi in the heart chambers, arteries or veins; conditions: animal models and clinical trials; ref [32]-[43]; cited from earlier work

For CNC[C@H](O)[C@@H](O)[C@H](O)[C@H](O)CO.CNC[C@H](O)[C@@H](O)[C@H](O)[C@H](O)CO.O=C([O-])CN(CCN(CC(=O)[O-])CC(=O)O)CCN(CC(=O)[O-])CC(=O)O.[Gd+3] [Gd-DTPA, Gadopentetate dimeglumine], the excretion ([1]; ref [22],[33]) is listed as “exclusive renal excretion”, the “t1/2, washout from the tumor core” value ([2]; 3 mice, Gd-DTPA 200 μmol/kg followed by CLP 20 μmol/kg i.v., ±SEM, p=0.35) is listed as 28 ± 5 min and the “t1/2, washout from the tumor core” value ([2]; 6 mice, Gd-DTPA 200 μmol/kg followed by EP-2104R 20 μmol/kg i.v., ±SEM, p=0.17) is listed as 38 ± 9 min. The “relaxivity at 9.4T” value ([3]; 9.4T, ref [48],[49]) was 3.7 mM⁻¹ s⁻¹, the “affinity for blood plasma proteins” value ([4]; ref [22],[33]) was “only very low affinity for blood plasma proteins” and the “retention in the tumor periphery / washout, in words” value ([5]; 9.4T) was “not retained in the tumor periphery; also recorded: significantly faster washout than EP-2104R”. For the same compound, the “half-life in tumor periphery compared with EP-2104R” value ([5]; all animals, p<0.05 for both) was “significantly shorter”, the “variability of washout from the tumor periphery” value ([5]; among all the mice, or across the tumor periphery ROI in some mice) was “very similar among all the mice” and the “t1/2 in the tumor periphery” value ([5]; animal 3, Gd-DTPA 200 μmol/kg then EP-2104R 20 μmol/kg i.v., 9.4T) was 27 min. The “t1/2 in the tumor periphery” value ([5]; animal 4, Gd-DTPA 200 μmol/kg then EP-2104R 20 μmol/kg i.v., 9.4T) was 38 min, the “t1/2 in the tumor periphery” value ([5]; animal 5, Gd-DTPA 200 μmol/kg then EP-2104R 20 μmol/kg i.v., 9.4T) was 26 min and the “t1/2 in the tumor periphery” value ([5]; animal 6, Gd-DTPA 200 μmol/kg then EP-2104R 20 μmol/kg i.v., 9.4T) was 23 min. For the same compound, the “t1/2 in the tumor periphery” value ([5]; animal 7, Gd-DTPA 200 μmol/kg then EP-2104R 20 μmol/kg i.v., 9.4T) was 38 min, the “t1/2 in the tumor periphery” value ([5]; animal 8, Gd-DTPA 200 μmol/kg then EP-2104R 20 μmol/kg i.v., 9.4T) was 41 min and the “t1/2 in the tumor periphery” value ([5]; animal 9, Gd-DTPA 200 μmol/kg then CLP 20 μmol/kg i.v., 9.4T) was 29 min. For the same compound, the “t1/2 in the tumor periphery” value ([5]; animal 10, Gd-DTPA 200 μmol/kg then CLP 20 μmol/kg i.v., 9.4T) was 20 min and the “t1/2 in the tumor periphery” value ([5]; animal 11, Gd-DTPA 200 μmol/kg then CLP 20 μmol/kg i.v., 9.4T) was 27 min.

For CC[C@H](C)[C@H](NC(=O)[C@H](Cc1ccc(O)cc1)NC(=O)[C@@H]1CSSC[C@H](NC(=O)[C@@H](CCC(=O)O)NC(=O)[C@H](Cc2ccc(O)cc2)NC(=O)[C@H](CCNC(=O)CCC(C(=O)O)N2CCN(CC(=O)O)CCN(CC(=O)O)CCN(CC(=O)O)CC2)NC(=O)CCC(C(=O)O)N2CCN(CC(=O)O)CCN(CC(=O)O)CCN(CC(=O)O)CC2)C(=O)N2C[C@H](O)C[C@H]2C(=O)N[C@@H](Cc2ccc(O)c(Cl)c2)C(=O)NCC(=O)N[C@@H](CC(C)C)C(=O)N1)C(=O)N[C@@H](CCC(N)=O)C(=O)NCc1ccc(CNC(=O)[C@H](CCNC(=O)CCC(C(=O)O)N2CCN(CC(=O)O)CCN(CC(=O)O)CCN(CC(=O)O)CC2)NC(=O)CCC(C(=O)O)N2CCN(CC(=O)O)CCN(CC(=O)O)CCN(CC(=O)O)CC2)cc1 (stereo partly drawn) [EP-2104R] ({DOTAGA}-[Dab](DOTAGA)Y[dE]C[Hyp][Tyr(3-Cl)]GLCYIQ-X1; disulfide 4-9; N-terminus and C-terminus assumed), the identification of thrombi [6] is given as “efficacious in identifying thrombi in the heart chambers, arteries or veins”, the excretion ([1]; in vivo) is given as “exclusive renal excretion” and the enhancement of tumor ([2]; EP-2104R 20 μmol/kg i.v., transient, tumor core and periphery, 9.4T) is given as “transiently enhanced both the tumor core and periphery”. For the same compound, the “washout from the tumor core, % slower than Gd-DTPA” value ([2]; in vivo) was 20%, the “t1/2, washout from the tumor core” value ([2]; mouse, in vivo, iv) was 45 ± 9 min and the “relaxivity at 9.4T, per Gd” value ([3]; 9.4T, per Gd, ref [48],[49]) was 6.4 mM⁻¹ s⁻¹. For the same compound, the “relaxivity at 9.4T” value ([3]; 9.4T, ref [48],[49]) was 25.6 mM⁻¹ s⁻¹, the “relaxivity of fibrin-bound probe at 9.4T vs clinical field strengths” value ([3]; fibrin-bound, 9.4T vs clinical field strengths, ref [22],[48]) was “much lower at this field compared to clinical field strengths” and the “affinity for blood plasma proteins” value [4] was “only very low affinity for blood plasma proteins”. For the same compound, the “retention in the tumor periphery / washout, in words” value ([5]; 9.4T) was “stays in the tumor periphery much longer than Gd-DTPA or CLP; also recorded: significantly longer retained in the tumor periphery; also recorded: retained significantly longer in the tumor periphery than either Gd-DTPA or CLP”, the “duration of persistent enhancement of the tumor periphery” value ([5]; after EP-2104R injection, 20 μmol/kg i.v., FLASH images, 9.4T) was no less than 90 min and the “variability of washout from the tumor periphery” value ([5]; in vivo) was “varied several fold across this ROI”. The “washout from the tumor periphery, % slower than Gd-DTPA” value ([5]; in vivo) was 190±75%, the “washout from the tumor periphery, fold slower than CLP” value ([5]; in vivo) was 5 fold and the “Half-life in the tumor periphery (mean ± SEM)” value ([5]; in vivo, iv) was 103 ± 18 min. The “t1/2 in the tumor periphery, Mean (St Dev)” value ([5]; in vivo, iv) was 103 (53) min.
